# “And” between values parts separate entries of the source, which are not always exact repeats. Equal values may be shown once.
# How the values were obtained:
# [1] = Plasma concentrations during 7-day oral dosing in beagle dogs; assay type: in vivo
# [2] = Single ascending dose study: pharmacokinetics (plasma, CSF); assay type: in vivo; conditions: Group 2, fesoterodine fumarate 8 mg 4 hours prior to 40 mg Compound 1
# Experimental: Compound 1 was administered in a single ascending dose (SAD) study conducted in approximately 54 healthy adult volunteers to investigate Compound 1 pharmacokinetics, safety, and tolerability. The study was conducted in two groups.
# Group 2 evaluated tolerability of Compound 1 at Group 1 MTD with or without fesoterodine fumarate co-administration. Subjects received 8 mg of fesoterodine fumarate tablet or matched placebo tablet 4 hours prior to administration of 40 mg of Compound 1.
# [3] = Group 2: fesoterodine fumarate 3 mg/kg/day PO alone, Day 7, 8 h
# [4] = Group 3: Compound 1 1.5 mg/kg/day PO + fesoterodine fumarate 3 mg/kg/day PO, Day 1, 0.250 h
# [5] = Group 3: Compound 1 1.5 mg/kg/day PO + fesoterodine fumarate 3 mg/kg/day PO, Day 1, 0.500 h
# [6] = Group 3: Compound 1 1.5 mg/kg/day PO + fesoterodine fumarate 3 mg/kg/day PO, Day 1, 0.750 h
# [7] = Group 3: Compound 1 1.5 mg/kg/day PO + fesoterodine fumarate 3 mg/kg/day PO, Day 1, 1.00 h
# [8] = Group 3: Compound 1 1.5 mg/kg/day PO + fesoterodine fumarate 3 mg/kg/day PO, Day 1, 2.00 h
# [9] = Group 3: Compound 1 1.5 mg/kg/day PO + fesoterodine fumarate 3 mg/kg/day PO, Day 1, 4.00 h
# [10] = Group 3: Compound 1 1.5 mg/kg/day PO + fesoterodine fumarate 3 mg/kg/day PO, Day 1, 8.00 h
# [11] = Group 3: Compound 1 1.5 mg/kg/day PO + fesoterodine fumarate 3 mg/kg/day PO, Day 7, 0.250 h
# [12] = Group 3: Compound 1 1.5 mg/kg/day PO + fesoterodine fumarate 3 mg/kg/day PO, Day 7, 0.500 h
# [13] = Group 3: Compound 1 1.5 mg/kg/day PO + fesoterodine fumarate 3 mg/kg/day PO, Day 7, 0.750 h
# [14] = Group 3: Compound 1 1.5 mg/kg/day PO + fesoterodine fumarate 3 mg/kg/day PO, Day 7, 1.00 h
# [15] = Group 3: Compound 1 1.5 mg/kg/day PO + fesoterodine fumarate 3 mg/kg/day PO, Day 7, 2.00 h
# [16] = Group 3: Compound 1 1.5 mg/kg/day PO + fesoterodine fumarate 3 mg/kg/day PO, Day 7, 4.00 h
# [17] = Group 3: Compound 1 1.5 mg/kg/day PO + fesoterodine fumarate 3 mg/kg/day PO, Day 7, 8.00 h
smiles,measurement,setting,value
"CC(C)N(CCC(c1ccccc1)c1cc(CO)ccc1O)C(C)C (stereo not shown) [desfesoterodine, 5-hydroxymethyl tolterodine]","Plasma concentration of desfesoterodine, individual animals D2001-D2005","[1]; Group 2: fesoterodine fumarate 3 mg/kg/day PO alone, Day 7, 4 h",51.4 ng/mL and 48.6 ng/mL and 44 ng/mL and 40.8 ng/mL and 43.5 ng/mL
same,"Plasma concentration of desfesoterodine, Mean",[1]; [3],8.066 ng/mL
same,"Plasma concentration of desfesoterodine, individual animals D2001-D2005",[1]; [3],8.12 ng/mL and 7.08 ng/mL and 6.52 ng/mL and 13.8 ng/mL and 4.81 ng/mL
same,"Plasma concentration of desfesoterodine, individual animals D2001-D2005","[1]; Group 2: fesoterodine fumarate 3 mg/kg/day PO alone, Day 7, 24 h",BQL
same,"Plasma concentration of desfesoterodine, individual animals D3001-D3005","[1]; Group 3: Compound 1 1.5 mg/kg/day PO + fesoterodine fumarate 3 mg/kg/day PO, Day 1, 0.00 h",BQL
same,"Plasma concentration of desfesoterodine, Mean",[1]; [4],125 ng/mL
same,"Plasma concentration of desfesoterodine, individual animals D3001-D3005",[1]; [4],225 ng/mL and 35.2 ng/mL and 333 ng/mL and 23.3 ng/mL and 9.33 ng/mL
same,"Plasma concentration of desfesoterodine, Mean",[1]; [5],111 ng/mL
same,"Plasma concentration of desfesoterodine, individual animals D3001-D3005",[1]; [5],154 ng/mL and 58.0 ng/mL and 257 ng/mL and 35.9 ng/mL and 52.4 ng/mL
same,"Plasma concentration of desfesoterodine, Mean",[1]; [6],100 ng/mL
same,"Plasma concentration of desfesoterodine, individual animals D3001-D3005",[1]; [6],136 ng/mL and 35.1 ng/mL and 203 ng/mL and 64.7 ng/mL and 61.3 ng/mL
same,"Plasma concentration of desfesoterodine, Mean",[1]; [7],66.6 ng/mL
same,"Plasma concentration of desfesoterodine, individual animals D3001-D3005",[1]; [7],96.0 ng/mL and 30.6 ng/mL and 149 ng/mL and 15.8 ng/mL and 41.5 ng/mL
same,"Plasma concentration of desfesoterodine, Mean",[1]; [8],36.0 ng/mL
same,"Plasma concentration of desfesoterodine, individual animals D3001-D3005",[1]; [8],32.4 ng/mL and 17.2 ng/mL and 74.2 ng/mL and 10.7 ng/mL and 45.5 ng/mL
same,"Plasma concentration of desfesoterodine, Mean",[1]; [9],9.29 ng/mL
same,"Plasma concentration of desfesoterodine, individual animals D3001-D3005",[1]; [9],7.08 ng/mL and 3.69 ng/mL and 17.0 ng/mL and 5.38 ng/mL and 13.3 ng/mL
same,"Plasma concentration of desfesoterodine, Mean",[1]; [10],2.78 ng/mL
same,"Plasma concentration of desfesoterodine, individual animals D3001-D3005",[1]; [10],1.41 ng/ml and 4.22 ng/ml and 3.82 ng/ml and BQL and 1.67 ng/ml
same,"Plasma concentration of desfesoterodine, individual animals D3001-D3005","[1]; Group 3: Compound 1 1.5 mg/kg/day PO + fesoterodine fumarate 3 mg/kg/day PO, Day 1, 24.0 h",BQL
same,"Plasma concentration of desfesoterodine, individual animals D3001-D3005","[1]; Group 3: Compound 1 1.5 mg/kg/day PO + fesoterodine fumarate 3 mg/kg/day PO, Day 7, 0.00 h",BQL
same,"Plasma concentration of desfesoterodine, Mean",[1]; [11],183 ng/mL
same,"Plasma concentration of desfesoterodine, individual animals D3001-D3005",[1]; [11],29.1 ng/mL and 60.6 ng/mL and 407 ng/mL and 149 ng/mL and 270 ng/mL
same,"Plasma concentration of desfesoterodine, Mean",[1]; [12],201 ng/mL
same,"Plasma concentration of desfesoterodine, individual animals D3001-D3005",[1]; [12],103 ng/mL and 77.7 ng/mL and 318 ng/mL and 197 ng/mL and 311 ng/mL
same,"Plasma concentration of desfesoterodine, Mean",[1]; [13],148 ng/mL
same,"Plasma concentration of desfesoterodine, individual animals D3001-D3005",[1]; [13],84.3 ng/mL and 66.4 ng/mL and 294 ng/mL and 102 ng/mL and 191 ng/mL
same,"Plasma concentration of desfesoterodine, Mean",[1]; [14],128 ng/mL
same,"Plasma concentration of desfesoterodine, individual animals D3001-D3005",[1]; [14],73.5 ng/mL and 64.7 ng/mL and 224 ng/mL and 105 ng/mL and 175 ng/mL
same,"Plasma concentration of desfesoterodine, Mean",[1]; [15],80.5 ng/mL
same,"Plasma concentration of desfesoterodine, individual animals D3001-D3005",[1]; [15],45.8 ng/mL and 42.6 ng/mL and 149 ng/mL and 63.2 ng/mL and 102 ng/mL
same,"Plasma concentration of desfesoterodine, Mean",[1]; [16],40.2 ng/mL
same,"Plasma concentration of desfesoterodine, individual animals D3001-D3005",[1]; [16],52.2 ng/mL and 15.2 ng/mL and 61.6 ng/mL and 31.6 ng/mL and 40.5 ng/mL
same,"Plasma concentration of desfesoterodine, Mean",[1]; [17],5.93 ng/mL
same,"Plasma concentration of desfesoterodine, individual animals D3001-D3005",[1]; [17],10.6 ng/mL and 3.92 ng/mL and 8.16 ng/mL and 2.93 ng/mL and 4.06 ng/mL
same,"Plasma concentration of desfesoterodine, individual animals D3001-D3005","[1]; Group 3: Compound 1 1.5 mg/kg/day PO + fesoterodine fumarate 3 mg/kg/day PO, Day 7, 24.0 h",BQL
same,mean desfesoterodine concentration in CSF at 1hour after administration of compound 1,[2],121.44 pg/mL
